Patent US20260083751A1, “ALLOSTERIC MODULATORS OF ANDROGEN RECEPTOR COACTIVATOR RECRUITMENT FOR CRPC THERAPY” (University of Pittsburgh – Of the Commonwealth System of …, priority 2022, published 2026)
Where two headings read alike, the source gives them in different places.

Molecular target: T1, AR-TIF2 PPI (Homo sapiens, UniProt P10275)
T1 construct: AR-LBD residues (662-919) were incorporated into one biosensor; expressed in transfected cells; host or cells: U-2 OS osteosarcoma cells, coinfected with recombinant adenoviruses
T1 sequence (P10275 662-919): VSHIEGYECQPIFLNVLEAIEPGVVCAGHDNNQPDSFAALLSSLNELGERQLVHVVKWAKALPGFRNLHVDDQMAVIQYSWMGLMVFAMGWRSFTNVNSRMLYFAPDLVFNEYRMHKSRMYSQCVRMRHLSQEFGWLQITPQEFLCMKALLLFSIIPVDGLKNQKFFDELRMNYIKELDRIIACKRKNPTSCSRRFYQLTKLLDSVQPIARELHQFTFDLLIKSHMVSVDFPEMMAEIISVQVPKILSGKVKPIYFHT
Test: AR-TIF2 PPIB HCS assay: inhibition of DHT-induced AR-TIF2 PPI formation (compound then DHT)
Assay type: cell-based
Settings: U-2 OS cells
Method: AR-TIF2 Protein-Protein Interaction Biosensor Assay: The AR-TIF2 PPIB HCS assay was performed in U-2 OS osteosarcoma cells as described previously (Fancher et al., Assay Drug Dev Technol. 2016, 14:453-477; Fancher et al., Assay Drug Dev Technol. 2018, 16:297-319; Hua et al., Assay Drug Dev Technol. 2014, 12:395-418; Hua et al., Methods Mol Biol. 2018, 1683:211-227). Briefly, U-2 OS cells were coinfected with recombinant adenovirus biosensor expression constructs and seeded at 2,500 cells per well in 384-well collagen-coated microplates (Greiner Bio-One #781956) and plates were incubated overnight at 37° C. in 5% CO2 and 95% humidity. […] After the appropriate time, assay plates were fixed by transfer of 50 μL of pre-warmed (37° C.) 7.4% formaldehyde and 2 μg/mL Hoechst 33342 in PBS and incubation at room temperature for 30 minutes. Liquid was aspirated, plates were washed twice with 85 μL PBS, leaving the final wash in the plate. Plates were sealed with adhesive aluminum plate seals, and fluorescent images of three fields of view were acquired in the DAPI (Hoechst stained nuclei), FITC (TIF2-GFP) and Texas Red (AR-RFP) channels on an ImageXpress® Micro (IXM) automated HCS platform (Molecular Devices LLC, Sunnyvale, CA) using a 10× Plan Fluor 0.3 NA objective. Images were analyzed using the Translocation Enhanced (TE) image analysis module of the MetaXpress® software (Molecular Devices, LLC, San Jose, CA) as described previously (Fancher et al., Assay Drug Dev Technol. 2016, 14:453-477; Fancher et al., Assay Drug Dev Technol. 2018, 16:297-319; Hua et al., Assay Drug Dev Technol. 2014, 12:395-418; Hua et al., Methods Mol Biol. 2018, 1683:211-227).
For the 96-well AR-LBD H^3-DHT radioligand binding assay, eight minimum and maximum plate control wells were utilized to normalize the data. For the PC cell line growth inhibition assays the DMSO control data from the TO and T72 assay plates was used to assess the dynamic range of the T0 to T72 cell growth, and to calculate S:B ratios and Z′-factor coefficient statistics for the assay signal window (T0 to T72). To normalize the 72 h compound exposure PC growth inhibition data, the signals from the compound treated wells were processed and expressed as % of the T72 DMSO plate controls. IC50 and GI50 values for each of the bioassays were calculated using GraphPad Prism 9 software to plot and fit data to curves using the Sigmoidal dose response variable slope equation Y=Bottom+[Top-Bottom]/[1+10^(Log EC50−X)*HillSlope].
A positional AR-TFI2 protein-protein interaction biosensor (PPIB) assay was used to identify small molecules that inhibited DHT-induced formation of AR-TIF2 PPIs and/or disrupted pre-existing AR-TIF2 PPIs (Fancher et al., Assay Drug Dev Technol 2016, 14(8):453-477; Fancher et al., Assay Drug Dev Technol 2018, 16(6):297-319; Hua et al., Assay Drug Dev Technol 2014, 12:395-418; Hua et al., Methods Mol biol 2018, 1683:211-227). AR-LBD residues (662-919) were incorporated into one biosensor and TIF2 residues (725-840) containing the 3rd NR box LXXLL motif into the second interacting biosensor partner (Id.) The AR-TIF2 PPIB recapitulates the orthosteric ligand (OSL)-induced translocation of AR from the cytoplasm into the nucleus where PPIs with TIF2 result in colocalization of both biosensors in the nucleolus. Using three libraries, a total of 143,535 compounds were screened—a 10,000-compound ChemDiv PPI focused diversity library, a 50,000-compound ChemBridge diversity library, and a 83,535-compound library provided by the NCI's Chemical Biology Consortium. The 10K and 50K diversity libraries were subsets of 142K and 810K parent libraries, enabling screening of a representative subset of >1×10^6 compounds. AR-TIF2 PPI inhibitor and disruptor actives were confirmed in the HCS assay and counter screens designed to identify and exclude nuisance/interference or non-selective compounds (Fancher et al., Assay Drug Dev Technol 2018, 16(6):297-319). […]

[1] = 25 nM DHT, read-out: Inhibition DHT-induced AR-TIF2 PPI Formation IC50
[2] = compound then DHT, read-out: C then D IC50

Row | Compound | IC50 [1] [µM] | IC50 [2] [µM]
1 | Cc1ccccc1-c1cc(O)c2c(c1)CN(c1nc(C(N)=O)cs1)CCO2 [Compound S1-1] | 5.38 | 5.64
2 | Cc1nc(N)cc(N2CCOc3c(O)cc(-c4ccccc4C)cc3C2)n1 [Compound S1-2] | – | 14.5
3 | Cc1ccccc1-c1cc(O)c2c(c1)CN(c1nccs1)CCO2 [Compound S1-3] | – | 30.5
4 | Cc1ccccc1-c1cc(O)c2c(c1)CN(c1cc(N)ncn1)CCO2 [Compound S1-4] | > 100 | > 100
5 | COc1cc(-c2ccc(C)s2)cc2c1OCCN(c1nc(C(N)=O)cs1)C2 [Compound S1-5] | – | 26.2
6 | Cc1nsc(NC(=O)N2CCC(Sc3ccccc3C)CC2)n1 [Compound S2-6] | 0.62 | –

Continued, values first:

Row | IC50 [1] [µM] | IC50 [2] [µM] | Compound
7 | > 100 | > 100 | Cc1nsc(NC(=O)N2CCC(Cn3ccnc3)CC2)n1 [Compound S2-7]
8 | 3.11 | 3.25 | Cc1c(-c2ccccc2F)[nH]c2ccc(CNC(=O)CCc3cn[nH]c3)cc12 [Compound S3-11]
9 | – | 5.13 | Cc1c(-c2ccccc2F)[nH]c2ccc(CNC(=O)CCc3cnccn3)cc12 [Compound S3-12]
10 | – | 7.98 | CC(=O)NCCC(=O)NCc1ccc2[nH]c(-c3ccccc3F)c(C)c2c1 [Compound S3-13]
11 | – | 2.42 | Cc1c(-c2ccccc2F)[nH]c2ccc(CNC(=O)c3ccc(CO)o3)cc12 [Compound S3-14]
12 | – | 6.7 | Cc1c(-c2ccc(F)cc2)[nH]c2ccc(CNC(=O)c3ccc(CO)o3)cc12 [Compound S3-15]
13 | – | 3.87 | Cc1cccc2c(-c3ccc(O)c(F)c3)c[nH]c12 [Compound S3-17]
14 | ~36 | 36.1 | CNC(=O)c1ccc(-c2c[nH]c3c(C)cccc23)cc1 [Compound S3-21]
